Counter-ions that a name gives are not always drawn.
Molecular target: T1, human oxytocin receptor (Homo sapiens, UniProt P30559)
T1 construct: host or cells: CHO cells, stably transfected (pcDNA3.1 vector)
T1 sequence (P30559 1-389): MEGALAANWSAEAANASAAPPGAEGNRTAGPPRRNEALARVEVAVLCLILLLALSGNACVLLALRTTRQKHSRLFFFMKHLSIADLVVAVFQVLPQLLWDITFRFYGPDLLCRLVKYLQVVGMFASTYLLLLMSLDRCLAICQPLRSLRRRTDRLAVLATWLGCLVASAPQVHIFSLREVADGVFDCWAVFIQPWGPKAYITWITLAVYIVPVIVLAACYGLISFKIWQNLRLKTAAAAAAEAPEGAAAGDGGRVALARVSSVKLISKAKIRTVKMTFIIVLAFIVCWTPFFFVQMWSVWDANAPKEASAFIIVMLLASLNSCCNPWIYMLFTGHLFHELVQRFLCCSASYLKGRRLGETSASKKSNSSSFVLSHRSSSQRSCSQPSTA
Experiment: Oxytocin binding in CHO cell membranes expressing human oxytocin receptors ([3H]oxytocin radioligand binding)
Settings: for inhibition at 0.1 µM / OT % inhibition @ 100 nM: 100 nM; for inhibition at 0.1 µM: read-out: OT % inhibition @ 100 nM; for IC50: value in parentheses, read-out: OT (IC50)
Source text: Chinese Hamster Ovary (CHO) cells stably transfected with the human oxytocin recptor (cf. Tanizawa et al., U.S. Pat. No. 5,466,584 (1995) to Rohto Pharmaceutical Co. Ltd., Osaka, Japan) were obtained from M. Thibonnier, Case Western Reserve University School of Medicine, Cleveland, Ohio.
CHO cells transfected with the human oxytocin receptors obtained from M. Thibonnier (pcDNA3.1 vector) are allowed to grow to confluency (approx. >90%) in T-150 flasks under sterile conditions, in a cell culture medium consisting of F-12 Nutrient Mixture (HAM) with L-glutamine (Gibco Cat. #11765-054) containing 15 mM HEPES (Gibco Cat. #15630-080), 1% antibiotic/antimycotic (add 5 mL 1 00×, Gibco Cat. #15240-062 per 500 mL F-12), 400 μg/mL of Geneticin (add 4 mL of 50 mg/mL per 500 mL F-12) and 10% Fetal Bovine Serum (Qualified, heat inactivated, Gibco Cat. #16140-063). The medium is removed by aspiration and the cells are washed with 10 mL of Hank's Balanced Salt solution (Gibco Cat. #14175-095). The salt solution is removed by aspiration and the cells trypsinized with 5 mL of trypsin-EDTA (0.05% trypsin, 0.53 mM EDTA-4Na, Gibco Cat. #25300-070) for 1 min The trypsin is removed by aspiration and the cells dislodged by tapping. Cell Culture medium (e.g. 30 mL for 1:30 split) is immediately added and mixed well to inactivate trypsin. 1 mL of detached cells is added to new culture flasks containing fresh Cell Culture medium (e.g. into 25 mL per T-150 flask), and mixed gently. The cells are incubated at 37° C. in 5% CO2. The medium is changed at 3 to 4 days interval (or as appropriate). The cells grow to confluency (approx. >75%-95%) within 7-8 days. All steps are done under sterile conditions.
The cells are washed twice gently with Hank's Balanced Salt solution (eg, use 10 mL per T-150 flask). The excess solution is removed and the cells bathed for 15-30 min. in an enzyme-free Cell Dissociation Buffer (eg, use 8 mL Hank's Based, Gibco Cat. #13150-016 per T-150 flask) until cells are loosened. The contents are transferred to centrifuge tubes (50 mL size) kept in ice bath. All subsequent steps are done at 4° C. The tubes are centrifuged at 300×g for 15 min (1380 rpm on SORVAL, Model RT6000D, using rotor for 50 mL tubes). The supernatant is discarded and the cells suspended in homogenizing buffer (10 mM Tris-HCl containing 0.25 M sucrose and 1 mM EDTA, pH 7.4) ensuring that the volume of the buffer is about ten times the volume of the cell pellet. The cells are pooled into a centrifuge tube (50 mL) and homogenized with a Polytron at setting 6 for 10 sec. The homogenate is transferred into a Potter-Elvjehm homogenizer and homogenized with 3 strokes. The homogenate is centrifuged at 1500×g for 10 min at 4° C. (3100 rpm using SORVAL, model RT6000D, using rotor for 50 mL tubes). The pellet is discarded. The supernatant is centrifuged at 100,000×g for 60 min. at 4° C. (Beckman L8-80M ultracentrifuge; spin at 37,500 rpm with rotor type 70 Ti for 50 mL tubes; 38,000 rpm with type 80 Ti for 15 mL tubes; or 35,800 rpm with rotor type 45Ti). The supernantant is discarded and the pellet suspended in 3 to 4 mL of Tris buffer (50 mM TRIS-HCl, pH 7.4). The protein content is estimated by the Bradford or Lowry method. The volume of the membrane suspension is adjusted with the membrane buffer (50 mM Tris-HCl containing 0.1% BSA and 0.1 mM PMSF) to give 3.0 mg/mL (or as appropriate) of protein. The membranes are aliquoted and stored at −70° C.
In wells of a 96-well format microtiter plate, is added 90, 110 or 130 μL (to make up a final volume of 200 μL) of assay buffer containing 50 mM of Tris-HCl (pH 7.4), […], 1 mg % aprotinin, 1 mg % leupeptin, 2 mg % 1,10-phenanthroline, 10 mg % trypsin inhibitor, and 0.1 mM PMSF. The inhibitors are added on the day of the experiment. The components are mixed at room temperature, and then kept in ice bath following adjustment of the pH to 7.4. […]

SMILES	OT % inhibition @ 100 nM	other results
COc1cc(C2=CCCCC2)c(Cl)cc1C(=O)N1Cc2ccc(C(=O)N(C)CCCN(C)C)n2Cc2ccccc21 [Example 2, 10-(5-Chloro-4-cyclohex-1-en-1-yl-2-methoxybenzoyl)-N-[3-(dimethylamino)propyl]-N-methyl-10,11-dihydro-5H-pyrrolo[2,1-c][1,4]benzodiazepine-3-carboxamide]		inhibition at 0.1 µM: 100%
COc1cc(C2=CCCCC2)c(Cl)cc1C(=O)N1Cc2ccc(C(=O)N(C)CCCN(C)C)n2Cc2ccccc21 [Example 3, 10-(5-Chloro-4-cyclohex-1-en-1-yl-2-methoxybenzoyl)-N-[3-(dimethylamino)propyl]-N-methyl-10,11-dihydro-5H-pyrrolo[2,1-c][1,4]benzodiazepine-3-carboxamide citric acid salt]		IC50: 9.04 nM
Cc1cc(C(=O)N2Cc3ccc(C(=O)N4CCN(C)CC4)n3Cc3ccccc32)ccc1C1=CCCCC1 [Example 4, [10-(4-Cyclohex-1-en-1-yl-3-methyl-benzoyl)-10,11-dihydro-5H-pyrrolo[2,1-c][1,4]benzodiazepin-3-yl]-(4-methyl-piperazin-1-yl)-methanone]		IC50: 7.47 nM
Cc1cc(C(=O)N2Cc3ccc(C(=O)N4CCN(CCCN(C)C)CC4)n3Cc3ccccc32)ccc1C1=CCCCC1 [Example 5, [10-(4-Cyclohex-1-en-1-yl-3-methyl-benzoyl)-10,11-dihydro-5H-pyrrolo[2,1-c][1,4]benzodiazepin-3-yl]-[4-(3-dimethylamino-propyl)-piperazin-1-yl]-methanone]		inhibition at 0.1 µM: 94%
Cc1cc(C(=O)N2Cc3ccc(C(=O)N4CCN(C)CC4)n3Cc3ccccc32)ccc1C1=CCCc2ccccc21 [Example 6, {10-[4-(3,4-Dihydro-naphthalen-1-yl)-3-methyl-benzoyl]-10,11-dihydro-5H-benzo[e]pyrrolo[1,2-a][1,4]diazepin-3-yl}-(4-methyl-piperazin-1-yl)-methanone]		IC50: 25.3 nM
Cc1cc(C(=O)N2Cc3ccc(C(=O)N4CCN(CCCN(C)C)CC4)n3Cc3ccccc32)ccc1C1=CCCc2ccccc21 [Example 7, {10-[4-(3,4-Dihydro-naphthalen-1-yl)-3-methyl-benzoyl]-10,11-dihydro-5H-pyrrolo[2,1-c][1,4]benzodiazepin-3-yl}-[4-(3-dimethylamino-propyl)-piperazin-1-yl]-methanone]		inhibition at 0.1 µM: 91%
CC1=C(c2ccc(C(=O)N3Cc4ccc(C(=O)N5CCN(C)CC5)n4Cc4ccccc43)cc2C)CCCC1O (centres unmarked) [Example 10, [4-(3-Hydroxy-2-methyl-cyclohex-1-en-1-yl)-3-methyl-phenyl]-[3-(4-methyl-piperazine-1carbonyl)-10,11-dihydro-5H-pyrrolo[2,1-c][1,4]benzodiazepin-10-yl]-methanone]		inhibition at 0.1 µM: 91%
Cc1cc(C(=O)N2Cc3ccc(C(=O)N4CCCN(C)CC4)n3Cc3ccccc32)ccc1C1=CCCCC1 [Example 13, {10-[4-(1-Cyclohex-1-en-1-yl)-3-methylbenzoyl]-10,11-dihydro-5H-pyrrolo[2,1-c][1,4]benzodiazepin-3-yl}(4-methyl-1,4-diazepan-1-yl)methanone]	90%	
Cc1cc(C(=O)N2Cc3ccc(C(=O)NCCCN(C)C)n3Cc3ccccc32)ccc1C1=CCCCC1 [Example 14, 10-[4-(1-Cyclohex-1-en-1-yl)-3-methylbenzoyl]-N-[3-(dimethylamino)propyl]-10,11-dihydro-5H-pyrrolo[2,1-c][1,4]benzodiazepine-3-carboxamide]	57%	
Cc1cc(C(=O)N2Cc3ccc(C(=O)N(C)CCN(C)C)n3Cc3ccccc32)ccc1C1=CCCCC1 [Example 15, 10-[4-(1-Cyclohex-1-en-1-yl)-3-methylbenzoyl]-N-[2-(dimethylamino)ethyl]-N-methyl-10,11-dihydro-5H-pyrrolo[2,1-c][1,4]benzodiazepine-3-carboxamide]	99%	
Cc1cc(C(=O)N2Cc3ccc(C(=O)N(C)CCCN(C)C)n3Cc3ccccc32)ccc1C1=CCCCC1 [Example 16, 10-[4-(1-Cyclohex-1-en-1-yl)-3-methylbenzoyl]-N-[3-(dimethylamino)propyl]-N-methyl-10,11-dihydro-5H-pyrrolo[2,1-c][1 ,4]benzodiazepine-3-carboxamide]	99%	
Cc1cc(C(=O)N2Cc3ccc(C(=O)N4CCC(N5CCCCC5)CC4)n3Cc3ccccc32)ccc1C1=CCCCC1 [Example 17, {10-[4-(1-Cyclohex-1-en-1-yl)-3-methylbenzoyl]-10,11-dihydro-5H-pyrrolo[2,1-c][1,4]benzodiazepin-3-yl}[4-(1-piperidinyl)-1-piperidinyl]methanone]	86%	
Cc1cc(C(=O)N2Cc3ccc(C(=O)NCCCn4ccnc4)n3Cc3ccccc32)ccc1C1=CCCCC1 [Example 18, 10-[4-(1-Cyclohex-1-en-1-yl)-3-methylbenzoyl]-N-[3-(1H-imidazol-1-yl)propyl]10,11-dihydro-5H-pyrrolo[2,1-c][1,4]benzodiazepine-3-carboxamide]	41%	
Cc1cc(C(=O)N2Cc3ccc(C(=O)N4CCC(N5CCCC5)CC4)n3Cc3ccccc32)ccc1C1=CCCCC1 [Example 19, {10-[4-(1-Cyclohex-1-en-1-yl)-3-methylbenzoyl]-10,11-dihydro-5H-pyrrolo[2,1c][1,4]benzodiazepin-3-yl}[4-(1-pyrrolidinyl)-1-piperidinyl]methanone]	82%	
Cc1cc(C(=O)N2Cc3ccc(C(=O)NCCN4CCCCC4)n3Cc3ccccc32)ccc1C1=CCCCC1 [Example 20, 10-[4-(1-Cyclohex-1-en-1-yl)-3-methylbenzoyl]-N-[2-(1-piperidinyl)ethyl]-10,11-dihydro-5H-pyrrolo[2,1-c][1,4]benzodiazepine-3-carboxamide]	52%	
Cc1cc(C(=O)N2Cc3ccc(C(=O)NCCC4CCCN4C)n3Cc3ccccc32)ccc1C1=CCCCC1 (centres unmarked) [Example 21, 10-[4-(1-Cyclohex-1-en-1-yl)-3-methylbenzoyl]-N-[2-(1-methyl-2-pyrrolidinyl)ethyl]-10,11-dihydro-5H-pyrrolo[2,1-c][1,4]benzodiazepine-3-carboxamide]	57%	
Cc1cc(C(=O)N2Cc3ccc(C(=O)N4CCN(CCN(C)C)CC4)n3Cc3ccccc32)ccc1C1=CCCCC1 [Example 22, {10-[4-(1-Cyclohex-1-en-1-yl)-3-methylbenzoyl]-10,11-dihydro-5H-pyrrolo[2,1-c][1,4]benzodiazepin-3-yl}{4-[2-(dimethylamino)ethyl]-1-piperazinyl}methanone]	92%	
